Counter-ions that a name gives are not always drawn. Like-named read-outs stand apart in the source and are kept apart here.
What was measured:
monkeys = tested on: monkeys; design: method as in earlier work; conditions: 9 months dosing; cited from earlier work
rats [1] = conditions: cited from earlier work
[2] = plasma, cited from earlier work
HBV [3] = assay: In vitro combination study in HepG2.2.15 cells; assay type: cell-based, hepatitis B virus; conditions: for interference with HBsAg inhibition by AB-161: HepG2.2.15, combined with AB-161; for effect on the levels of HBsAg: HepG2.2.15, compound alone; for Antagonism / Synergy / Conclusion (combination effect): Inhibitor A combined with AB-161, HBV DNA; for Antagonism / Synergy: 99.9% confidence; for Conclusion (combination effect): Prichard and Shipman criteria
HBV [4] = assay: HBV life cycle analysis in HepG2.2.15 cells; assay type: cell-based, hepatitis B virus; conditions: ETV 1 μM, GLS4 1 μM, AB-161 100 nM
Wild-type HBV = assay: HBV polymerase variant phenotyping in Huh-7: wild-type; conditions: Hepatitis B virus, Huh-7, read-out: HBV DNA, EC50
rats [5] = conditions: rat, in vivo; cited from earlier work
dogs = conditions: dog, in vivo; cited from earlier work

Structure (SMILES) | interference with HBsAg inhibition by AB-161 (HBV [3]) | effect on the levels of HBsAg (HBV [3]) | Antagonism (HBV [3]) [µM^2%] | Synergy (HBV [3]) [µM^2%] | Conclusion (combination effect) (HBV [3]) | HBV DNA replication (HBV [4]) | intracellular HBV RNA (pgRNA, preS/S RNA) (HBV [4]) | viral proteins: HBV core and capsid assembly (HBV [4]) | also measured
COCCCOc1cc2c(cc1OC)-c1cc(=O)c(C(=O)O)cn1[C@H](C(C)C)C2 [RG7834] |  |  |  |  |  |  |  |  | neurotoxicity (monkeys): dose- and time-dependent neurotoxicity; neurotoxicity (rats [1]; 6 months dosing): dose- and time-dependent neurotoxicity; male reproductive adverse events (rats [1]): abnormal sperm and testicular changes; protein binding ([2]; species not stated): ~56%
CC(C)OC(=O)OCOP(=O)(CO[C@H](C)Cn1cnc2c(N)ncnc21)OCOC(=O)OC(C)C [TDF, tenofovir disoproxil fumarate] | did not interfere | do not affect | −0.43 ± 0.744 | 0.00 ± 0.00 | Additive |  |  |  | 
CCOC(=O)C1=C(CN2CCOCC2)NC(c2nccs2)=NC1c1ccc(F)cc1Br (centres unmarked) [GLS4] |  |  |  |  |  | substantially reduced | no effect | substantially reduced | 
C=C1[C@H](CO)[C@@H](O)C[C@@H]1n1cnc2c(=O)[nH]c(N)nc21 [ETV, entecavir] | did not interfere | do not affect | −3.99 ± 3.59 | 0.00 ± 0.00 | Additive | profoundly inhibited | no effect | no effect | EC50 (Wild-type HBV): 17 nM; EC50 (HBV [3]; Hepatitis B virus, HepG2.2.15, read-out: Inhibitor A EC50): 5.1 ± 1.1 nM
COCCCOc1cc2c(nc1OC)-c1cc(=O)c(C(=O)O)cn1[C@H](C(C)C)C2 [AB-452, (S)-6-Isopropyl-2-methoxy-3-(3-methoxypropoxy)-10-oxo-5,10-dihydro-6H-pyrido [1,2-h][1,7]naphthyridine-9-carboxylic Acid] |  |  |  |  |  |  |  |  | findings in male reproductive tissues (rats [5]): Decreased epididymis and minimal-to-mild spermatid depletion; histopathology of sciatic nerves (rats [5]): axonal degeneration; histopathology of spinal nerves (dogs): axonal degeneration; protein binding [2]: ~50%

From PMC10975527 (Viruses, 2024)
